Values of other authors, collected in patent publication US11191866B2, “Dressing enabling the controlled and prolonged release of metformin” (Urgo Recherche Innovation et Developpement, priority 2016, dated 2021).

Details: rats; radioactively marked, deposited on a wound in a gel

CN(C)C(=N)N=C(N)N [metformin]
time remaining at the local level on the wound: remained for a very short period of time at the local level
